Here are results for one compound from patent US20230416203A1, “POTENT AND SELECTIVE INHIBITORS OF THE CALCIUM-ACTIVATED POTASSIUM CHANNEL, KCA3.1, FOR USE AS PLATFORM THERAPEUTICS” (priority 2020, published 2023).

Data set [1] has as its system middle cerebral artery occlusion (MCAO). The experiment in a line: Neurological behavioral evaluation in MCAO model (18-point system). Format: in vivo, SD male rats. Conditions: 48 h and day 7, rat MCAO, vs Edaravone. The text has this:
The animals were individually assessed based on the scoring method described in Table 18.

For data set [2], the system named is panel of other molecular targets. As for the experimental part:
The results are expressed as a percent inhibition of control specific binding [100-(measured specific binding/control specific binding*100)]. The IC50 values and Hill coefficients (nH) were determined by non-linear regression analysis of the competition curves generated with mean replicate values using Hill equation curve fitting performed with software developed at Cerep (Hill software) and validated by comparison with data generated by the commercial software SigmaPlot® 4.0.

The nature of data set [3]: Plasma and liver studies after 14 days of repeated oral dose. Type of data set: in vivo, C57/BL6 mice. Conditions: C57/BL6, mouse; for Kp at 14 days: liver/plasma, read-out: Liver to Plasma Ratio.

“Also recorded” adds a separate entry of the source. Where two headings read alike, the source gives them in different places.

With `COC(=O)C1=CNC=C(C(=O)OC)C1c1ccc(F)c(C(F)(F)F)c1` [Compound 103, Dimethyl 4-(4-fluoro-3-(trifluoromethyl)phenyl)-1,4-dihydropyridine-3,5-dicarboxylate], in data set [1], the neurological behavioral scores entry is on record as “improves neurological behavior scores more effectively than Edaravone; also recorded: improved neurological behavioral scores”. The “selectivity for KCa3.1 over other channels and a panel of ~100 molecular targets” value in data set [2] is given as > 1000 fold. For the same compound, the Kp at 14 days in data set [3] (25 mg/kg BID oral 14 days, Female mice) worked out at 85.6; in data set [3] (25 mg/kg BID oral 14 days, Male mice), 36; in data set [3] (50 mg/kg BID oral 14 days, Female mice), 31.9; in data set [3] (50 mg/kg BID oral 14 days, Male mice), 19.6. The concentration at 14 days amounted to 8420 ng/g in data set [3] (liver, 25 mg/kg BID oral 14 days, Female mice, read-out: Average Concentration Liver); 10100 ng/g in data set [3] (liver, 25 mg/kg BID oral 14 days, Male mice, read-out: Average Concentration Liver); 12100 ng/g in data set [3] (liver, 50 mg/kg BID oral 14 days, Female mice, read-out: Average Concentration Liver); 17500 ng/g in data set [3] (liver, 50 mg/kg BID oral 14 days, Male mice, read-out: Average Concentration Liver); 100 ng/mL in data set [3] (plasma, 25 mg/kg BID oral 14 days, Female mice, read-out: Average Concentration Plasma); 297 ng/mL in data set [3] (plasma, 25 mg/kg BID oral 14 days, Male mice, read-out: Average Concentration Plasma). In addition, the concentration at 14 days stood at 401 ng/mL in data set [3] (plasma, 50 mg/kg BID oral 14 days, Female mice, read-out: Average Concentration Plasma) and 929 ng/mL in data set [3] (plasma, 50 mg/kg BID oral 14 days, Male mice, read-out: Average Concentration Plasma).
